Data reported in paper PMC10470178, “Long-acting lenacapavir protects macaques against intravenous challenge with simian-tropic HIV” (eBioMedicine, 2023).
Where two headings read alike, the source gives them in different places.

Tests used:
[1] = Equilibrium dialysis shift assay in PTM plasma; assay type: in vitro ADME, pigtail macaque; settings: competitive equilibrium dialysis, LEN 2 μM in 10% PTM plasma, 4 donors, 24 h, 37 °C
Procedure: The protein shift ratio for LEN in PTM plasma was determined by competitive equilibrium dialysis. Lenacapavir (2 μM) was spiked into 10% PTM plasma from each of 4 individual donors (3 males and 1 female) and then placed in triplicate into one side of assembled dialysis cells (Harvard Apparatus), followed by the addition of RPMI cell culture medium containing 10% foetal bovine serum to the opposite side of each cell. After a 24-h equilibration period at 37 °C, plasma and cell culture medium samples were collected and individually mixed 1:1 with the reciprocal blank matrix. Samples were then deproteinated following the addition of acetonitrile (1:4 ratio, respectively) containing 50 ng/ml warfarin and 50 ng/ml ritonavir as an internal standard and analysed using a liquid chromatography with tandem mass spectrometry (LC-MS/MS) method utilizing a SciEx API 4000 triple quadrupole mass spectrometer equipped with a Shimadzu Nexera UPLC system. The mean plasma protein binding-adjusted shift for LEN in 100% PTM plasma obtained from 4 independent experiments, each using a single PTM plasma donor performed in triplicate, was then calculated using a non-linear equation.

[2] = Pharmacokinetics of subcutaneous LEN in pigtail macaques; assay type: in vivo, pigtail macaques (Macaca nemestrina); settings: for range of peak plasma LEN concentration after second dose / mean peak plasma LEN concentration after first dose / range of peak plasma LEN concentration after first dose: N = 3; for time mean plasma drug concentrations above the PA-EC95: two doses 6 weeks apart; for half-life: sc
Procedure: Sixteen male, purpose-bred pigtail macaques (Macaca nemestrina; ages 4.6–8.5 years at the time of study initiation) were housed at NIH-Bethesda (Supplementary Table S1). All study animals received enrofloxacin (10 mg/kg, administered orally, once per day for 10 days), paromomycin (25 mg/kg, administered orally, twice daily for 7–10 days), and fenbendazole (50 mg/kg administered orally, once per day for 5 days) two weeks to 43 months prior to study initiation. Lenacapavir or drug vehicle (sterile, preservative-free 57.5% w/v polyethylene glycol 300 in water) doses were administered to sedated animals via SC injection into the scapular region such that no more than 2 ml of solution was injected into a single SC site. Animals in the LEN pharmacokinetic evaluation study (N = 6) each received two doses of LEN, both at 15 mg/kg (N = 3) or at 50 mg/kg (N = 3), 6 weeks apart. Animals in the virus challenge experiment each received a single dose of LEN at 25 mg/kg (N = 3, LEN PrEP group) or drug vehicle (N = 4, vehicle control group) 30 days prior to stHIV-A19 challenge, or a cART regimen consisting of tenofovir disoproxil fumarate (TDF), emtricitabine (FTC), and dolutegravir (DTG) (N = 3, TDF/FTC/DTG group), coformulated and administered as previously described[29]^,[30] for 7 days beginning 3 days prior to stHIV-A19 challenge (Supplementary Figure S1). Hair was clipped and skin marked at LEN and vehicle injection sites to allow for subsequent visual and manual assessment and scoring of potential ISRs by non-blinded veterinary care staff. Complete blood counts (CBC) and serum chemistries were monitored prior to and at 2- to 4-week intervals after LEN administration for at least one year. Following the first dose of LEN in the PK study, one animal in the 50-mg/kg dosing group received 7 consecutive days of daily ketoprofen (2 mg/kg) administered intramuscularly for ISR analgesia at veterinary discretion. For the second dose of LEN in the PK study, all animals in the 50-mg/kg dosing group received 5–7 consecutive days of twice daily oral carprofen (2 mg/kg) analgesia administered prophylactically starting on the day of LEN dosing. In the IV challenge PrEP study, all LEN and vehicle control animals received 3–5 consecutive days of twice daily oral carprofen (2 mg/kg) analgesia administered prophylactically starting on the day of injection. For virus challenge, PrEP study animals each received 1 × 10^5 infectious units of stHIV-A19 injected intravenously. After LEN washout, LEN PrEP group animals received a single 50-mg/kg dose of rhesusized depleting anti-CD8α antibody (MT807R1, RRID: AB_2716320, NIH Nonhuman Primate Reagent Resource), administered SC to anesthetized animals.
Whole blood was collected in EDTA Vacutainer Tubes (BD) from sedated animals. Plasma for vRNA quantification, LEN concentration determination, and HIV-1 Western blot analysis was separated from whole blood and clarified by centrifugation, and then stored at −80 °C. Following plasma separation, the blood cellular component was resuspended in an equivalent volume of PBS and then PBMCs were isolated by Ficoll-Paque Plus (GE Healthcare) gradient centrifugation. Portions of isolated PBMC samples were cryopreserved as dry cell pellets for CA-vDNA quantification.
Pigtail macaque plasma samples stored frozen at −80 °C were thawed, and a 50 μl aliquot of each was treated with 200 μl acetonitrile containing a generic internal small-molecule standard. After precipitation of the protein component, a 150 μl aliquot of the supernatant was transferred to a clean 96-well plate and evaporated to dryness under a nitrogen stream. The samples were reconstituted with 100 μL of 50% acetonitrile and then injected into an API-6500+ QTRAP triple quadrupole mass spectrometer (SciEx) with electrospray ionization in positive mode. […]

[3] = parameters: method as in earlier work; settings: single SC injection of 900 mg LEN, Phase 1b clinical trial; cited from earlier work
[4] = 15 mg/kg SC on Study Day 0 and 42, PTM, N = 3, mean ± SD
[5] = 25 mg/kg single SC dose on Study Day 0, PTM, N = 3, mean ± SD
[6] = 25 mg/kg single SC dose, all three animals
[7] = 50 mg/kg SC on Study Day 0 and 42, PTM, N = 3, mean ± SD

With `CC(C)(C#Cc1ccc(-c2ccc(Cl)c3c(NS(C)(=O)=O)nn(CC(F)(F)F)c23)c([C@H](Cc2cc(F)cc(F)c2)NC(=O)Cn2nc(C(F)(F)F)c3c2C(F)(F)[C@@H]2C[C@H]32)n1)S(C)(=O)=O` [LEN, Lenacapavir] the “projected reduction of antiviral potency in 100% PTM plasma vs complete cell culture media (protein shift)” value [1] was 9.7 fold, the “range of peak plasma LEN concentration after second dose” value ([2]; 15 mg/kg SC on Study Day 0 and 42, PTM) was 57 to 77 nM and the AUCinf [2, 4] was 80.9 ± 2.5 μM∗h. The AUClast [2, 4] was 80.7 ± 2.5 μM∗h, the Cmax ([2]; 15 mg/kg SC on Study Day 0 and 42, PTM, N = 3, mean ± SD, read-out: Cmax (mean peak plasma concentration after second dose)) was 67.8 ± 10.1 nM and the “mean peak plasma LEN concentration after first dose” value ([2]; 15 mg/kg SC, PTM) was 16 nM. For the same molecule, the “range of peak plasma LEN concentration after first dose” value ([2]; 15 mg/kg SC, PTM) was 10 to 28 nM, the “time mean plasma drug concentrations above the PA-EC95” value ([2]; 15 mg/kg SC, PTM) was greater than 189 days and the AUCinf [2, 5] was 92.0 ± 17.8 μM∗h. The AUClast [2, 5] was 91.3 ± 17.8 μM∗h, the “plasma LEN concentration at time of stHIV-A19 challenge relative to PA-EC95” value ([2]; 25 mg/kg single SC dose, 30 days after dosing, all 3 animals) was greater than 5 fold and the “plasma LEN at 419 days post-challenge” value ([2]; 25 mg/kg single SC dose, LEN PrEP animals) was “no longer detected in plasma”. For the same molecule, the “time plasma LEN concentrations remaining above the PA-EC95” value [2, 6] was greater than 200 days, the “time plasma LEN remaining above the lower limit of quantitation (LLOQ, 0.1 nM)” value [2, 6] was “more than one year” and the “range of peak plasma LEN concentration after second dose” value ([2]; 50 mg/kg SC on Study Day 0 and 42, PTM) was 234 to 350 nM. The AUCinf [2, 7] was 408 ± 106 μM∗h, the AUClast [2, 7] was 408 ± 106 μM∗h and the “mean peak plasma LEN concentration after first dose” value ([2]; 50 mg/kg SC, PTM) was 95 nM. The “range of peak plasma LEN concentration after first dose” value ([2]; 50 mg/kg SC, PTM) was 48 to 120 nM, the “time mean plasma drug concentrations above the PA-EC95” value ([2]; 50 mg/kg SC, PTM) was greater than 245 days and the half-life ([2]; male, monkey, in vivo, 15 mg/kg, 15 mg/kg SC on Study Day 0 and 42, PTM, N = 3, mean ± SD, read-out: t1/2 (converted)) was 42.1 ± 28.2 days. It also gave a half-life ([2]; male, monkey, in vivo, 15 mg/kg, 15 mg/kg SC, after second dose, PTM, read-out: mean terminal half-life (t1/2) (converted)) of 42 days, a half-life ([2]; male, monkey, in vivo, 25 mg/kg, 25 mg/kg single SC dose on Study Day 0, PTM, N = 3, mean ± SD, read-out: t1/2 (converted)) of 38.5 ± 14.2 days and a half-life ([2]; male, monkey, in vivo, 50 mg/kg, 50 mg/kg SC on Study Day 0 and 42, PTM, N = 3, mean ± SD, read-out: t1/2 (converted)) of 48.3 ± 5.83 days. The half-life ([2]; male, monkey, in vivo, 50 mg/kg, 50 mg/kg SC, after second dose, PTM, read-out: mean terminal half-life (t1/2) (converted)) was 48 days, the Cmax ([2]; male, monkey, plasma, Cmax (mean peak plasma concentration after second dose), 15 mg/kg SC on Study Day 0 and 42, PTM, N = 3, mean ± SD, read-out: Cmax (mean peak plasma concentration after second dose)) was 68 nM and the Cmax ([2]; male, monkey, plasma, Cmax (mean peak plasma concentration after second dose), 50 mg/kg SC on Study Day 0 and 42, PTM, N = 3, mean ± SD, read-out: Cmax (mean peak plasma concentration after second dose)) was 295 ± 58 nM. It also gave a Cmax ([2]; male, monkey, plasma, Cmax, 25 mg/kg single SC dose on Study Day 0, PTM, N = 3, mean ± SD, read-out: Cmax) of 47 ± 5.7 nM, a half-life ([2]; male, pigtail macaque, in vivo, 25 mg/kg, 25 mg/kg single SC dose, PTM, read-out: mean t1/2 (converted)) of 38.5 days and a concentration at 30 days ([2]; male, pigtail macaque, in vivo, 25 mg/kg single SC dose, 30 days after dosing, range of 3 animals, read-out: plasma LEN concentrations at the time of stHIV-A19 challenge) of 8.6 to 51.2 nM. For the same molecule, the “mean plasma drug concentrations relative to PA-EC95, maintained for 6 months” value [3] was no less than 6 fold.
